In data set [1] the target is T1, 5-HT6 receptor (Homo sapiens, UniProt P50406). In words: In vitro affinity for human 5-HT6 receptors, [3H]-LSD binding in CHO cell membranes. Set-up: host or cells: CHO/Gα16/mtAEQ/h5HT6-A1 (CHO AequoScreen recombinant cell line).
Experimental: Affinity for human 5-HT6 receptors was measured in a membrane preparation of CHO-cells transfected with human 5-HT6 receptors by binding studies using [^3H]-N-Methyl-Lysergic acid diethylamide ([^3H]-LSD) as ligand. […] CHO/Gα16/mtAEQ/h5HT6-A1 cells were grown in T-flasks in CHO-S-SFM II medium (Gibco BRL), supplemented with 1% dialysed FCS, 2 mM L-glutamine, Geneticin 500 μg/ml and Zeocin 200 μg/ml. […] After thawing cells were centrifuged during 3 minutes at 1500 g at 4° C. […] The assay was established so as to achieve steady state conditions and to optimize specific binding. For the 5-HT6 receptor, membranes from 5.10^5 cells were incubated with 5.0 nM [^3H]-LSD at 37° C. for 30 minutes. Nonspecific binding was determined using 10^−5 M serotonin. Assays were terminated by vacuum filtration through glass fiber filters (GF/B) which had been pretreated with 0.5% polyethyleneimine. Total and bound radioactivity was determined by liquid scintillation counting. […] Compounds were tested at a 4 log concentration range; all determinations were performed as triplicates. IC50 values were determined by non-linear regression analysis using Hill equation curve fitting. The inhibition constants (Ki-values) were calculated from the Cheng-Preushoff equation: Ki=IC50:(1+L/Kd) wherein L represents the concentration radioligand ([^3H]-LSD) in the assay, and Kd the affinity of the radioligand for the receptor. Results are expressed as pKi-values, means±SD of at least three separate experiments.
Data set [2] addresses T1, 5-HT6 receptor. In words: In vitro functional activity (antagonism) on human 5-HT6 receptors, CHO-human-5HT6-Aequorin assay. It is filed as cell-based. Set-up: host or cells: CHO/Gα16/mtAEQ/h5HT6-A1 (CHO AequoScreen recombinant cell line).
Experimental: Human-5-HT6-Aequorin cells express mitochondrial targeted apo-Aequorin. Cells have to be loaded with coelanterazine, in order to reconstitute active Aequorin. […] This luminescent response is dependent on the agonist concentration. Luminescence is measured using the MicroBeta Jet (Perkin Elmer). Agonistic effects of compounds are expressed as pEC50. […] Compounds were tested at a 5 log concentration range, and 3 independent experiments were performed in duplicate.
Where [3] appears, read: [3H]-LSD 5.0 nM, membranes of CHO cells transfected with human 5-HT6, read-out: 5-HT6 pKi (converted).
Where [4] appears, read: antagonism of 10^-8 M α-methylserotonin induced luminescence, CHO-human-5HT6-Aequorin cells, read-out: 5-HT6 pA2 (converted).
Setting [5] is: antagonism of 10^-8 M α-methylserotonin induced luminescence, CHO-human-5HT6-Aequorin cells.

Read-outs that look alike come from different tables or passages of the source.

The melting point is the temperature of the solid-liquid transition.

T1 sequence (P50406 whole entry): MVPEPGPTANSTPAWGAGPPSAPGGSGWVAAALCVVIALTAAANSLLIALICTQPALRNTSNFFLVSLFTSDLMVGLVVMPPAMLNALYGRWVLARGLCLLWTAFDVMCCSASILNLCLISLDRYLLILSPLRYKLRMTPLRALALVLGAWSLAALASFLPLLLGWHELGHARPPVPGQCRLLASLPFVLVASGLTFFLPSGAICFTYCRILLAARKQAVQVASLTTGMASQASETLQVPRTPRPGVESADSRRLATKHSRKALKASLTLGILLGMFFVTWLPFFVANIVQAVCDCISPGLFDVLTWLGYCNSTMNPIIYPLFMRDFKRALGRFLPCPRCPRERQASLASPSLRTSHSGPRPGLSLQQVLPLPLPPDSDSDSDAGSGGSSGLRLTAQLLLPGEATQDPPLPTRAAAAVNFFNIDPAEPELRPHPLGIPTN

In the case of `CN/C(=N\S(=O)(=O)c1ccc(F)cc1)N1CCC(c2ccc(Cl)cc2)=N1`, the melting point is 188 to 189 °C.
The same measure, in the same setting: with `CCN/C(=N\S(=O)(=O)c1ccc(Cl)cc1)N1CC(CC)C=N1` (stereo not drawn) the figure was 84 to 86 °C.
`CCN/C(=N\S(=O)(=O)c1cccc2ccccc12)N1CC(CC)C=N1` (stereo not drawn): the melting point was in the range of 79 to 80 °C.
Regarding `CCN/C(=N\S(=O)(=O)c1ccccc1Cl)N1CCC(CC)=N1`, the melting point fell in the range of 91 to 93 °C.
Consider `CCN/C(=N\S(=O)(=O)c1cccc(Cl)c1)N1N=CC(CC)C1c1ccccc1` (single isomer, unassigned) [cis(+)-153], for which the Ki at 5-HT6 receptor [1] (setting [3]) is 1.26 µM.
As for `CCN/C(=N\S(=O)(=O)c1cccc(Cl)c1)N1N=CC(CC)C1c1ccccc1` (single isomer, unassigned) [cis(−)-153], the Ki at 5-HT6 receptor [1] (setting [3]) was 0.0501 µM.
On the same count and under the same terms, in the case of `CCN/C(=N\S(=O)(=O)c1cccc(Cl)c1)N1N=CC(CC)C1c1ccccc1` (single isomer, unassigned) [trans-(+)-153] it was 0.126 µM; in that of `CCN/C(=N\S(=O)(=O)c1cccc(Cl)c1)N1N=CC(CC)C1c1ccccc1` (single isomer, unassigned) [trans-(−)-153], 0.398 µM.
`CCC1C=NN(/C(N)=N/S(=O)(=O)c2c(Cl)nc3sccn23)C1` (single isomer, unassigned; (+)) [(+)123] came in with a melting point of 146 to 147 °C.
As for `CCN/C(=N\S(=O)(=O)c1c(Cl)nc2sccn12)N1CC(CC)C=N1` (single isomer, unassigned; (+)) [(+)-41], the Kb at 5-HT6 receptor [2] (setting [4]) was 0.00126 µM.
Regarding `CCC1C=NN(/C(N)=N/S(=O)(=O)c2c(Cl)nc3sccn23)C1` (single isomer, unassigned; (-)) [(−)-123], the melting point is 176 to 178 °C.
Consider `CCC1C=NN(/C(=N/S(=O)(=O)c2ccccc2Cl)N(CC)CC)C1` (stereo not drawn) [compound 1], for which, at 5-HT6 receptor [2], the Kb was 0.316 µM.
Turning to `CCN/C(=N\S(=O)(=O)c1ccccc1Cl)N1CC(CC)C=N1` (stereo not drawn) [compound 2, 2-Chloro-N-[ethylamino-(4-ethyl-4,5-dihydro-pyrazol-1-yl)-methylene]-benzenesulfon-amide], the Ki at 5-HT6 receptor [1] (setting [3]) is 0.0501 µM. For the same compound, at 5-HT6 receptor [2] (setting [4]), the Kb was 0.00316 µM.
On to `CCC1C=NN(/C(N)=N/S(=O)(=O)c2ccccc2Cl)C1` (stereo not drawn) [compound 3], for which the melting point was in the range of 161 to 163 °C.
Still for that read-out and setting: in the case of `CCC1C=NN(/C(=N/S(=O)(=O)c2ccccc2Cl)N(C)C)C1` (stereo not drawn) [compound 5] it was 94 to 95 °C; in that of `CCC1C=NN(/C(=N/S(=O)(=O)c2ccccc2Cl)NCC2CCNCC2)C1` (stereo not drawn) [compound 11], 131 to 138 °C.
Same read-out and setting: in the case of `CCC1C=NN(/C(=N/S(=O)(=O)c2ccccc2Cl)Nc2ccccc2)C1` (stereo not drawn) [compound 12] it was 128 to 130 °C.
Consider `CCC1C=NN(/C(=N/S(=O)(=O)c2ccccc2Cl)NCc2ccccc2)C1` (stereo not drawn) [compound 13], for which the Ki at 5-HT6 receptor [1] (setting [3]) is 0.0794 µM. Moreover, on 5-HT6 receptor [2] (setting [4]), the Kb is 0.2 µM.
For the compound `CCN/C(=N\S(=O)(=O)c1ccccc1)N1CC(CC)C=N1` (stereo not drawn) [compound 24], the melting point lay within 43 to 45 °C.
In the case of `CCN/C(=N\S(=O)(=O)c1cccc(Cl)c1)N1CCC=N1` [compound 28], the Ki on 5-HT6 receptor [1] (setting [3]) was 0.02 µM. The “5-HT6 pA2” value on 5-HT6 receptor [2] (setting [5]) was 7.1. The Kb at 5-HT6 receptor [2] (setting [4]) was 0.02 µM.
In turn, `CCC1C=NN(/C(N)=N/S(=O)(=O)c2cccc(Cl)c2)C1` (stereo not drawn) [compound 29] showed a melting point of 141 to 142 °C.
With `CCC1C=NN(/C(N)=N/S(=O)(=O)c2ccc(C)cc2)C1` (stereo not drawn) [compound 31], the melting point was in the range of 131 to 133 °C.
For `CCN/C(=N\S(=O)(=O)c1cccc(Cl)c1)N1CC(C)(C)C=N1` [compound 33, 3-Chloro-N-[(4,4-dimethyl-4,5-dihydro-pyrazol-1-yl)-ethylamino-methylene]-benzenesulfonamide], the Ki at 5-HT6 receptor [1] (setting [3]) is 0.0158 µM. Besides, the Kb at 5-HT6 receptor [2] (setting [4]) is 0.0126 µM.
As to `CCN/C(=N\S(=O)(=O)c1cccc(Cl)c1)N1CCC(C)=N1` [compound 42], the Ki on 5-HT6 receptor [1] (5-HT6 pKi) is 0.2 µM. The “5-HT6 pA2” value on 5-HT6 receptor [2] (setting [5]) stood at 6.9.
On to `CCN/C(=N\S(=O)(=O)c1cccs1)N1CC(CC)C=N1` (stereo not drawn) [compound 51], for which the Ki at 5-HT6 receptor [1] (setting [3]) is 0.126 µM. In addition, the Kb on 5-HT6 receptor [2] (setting [4]) was 0.2 µM.
The matching figures for `CCN/C(=N\S(=O)(=O)c1cccc2nsnc12)N1CC(CC)C=N1` (stereo not drawn) [compound 78, Benzo[1,2,5]thiadiazole-4-sulfonic acid ethylamino-(4-ethyl-4,5-dihydro-pyrazol-1-yl)-methyleneamide]: 0.0631 µM and 0.0794 µM.
The like results for `CCN/C(=N\S(=O)(=O)/C=C/c1ccccc1)N1CC(CC)C=N1` (stereo not drawn) [compound 83] were, in that order, 0.0794 µM and 0.0631 µM.
The like results for `CCN/C(=N\S(=O)(=O)c1cc2ccccc2s1)N1CC(CC)C=N1` (stereo not drawn) [compound 89] were, in that order, 0.00501 µM and 0.000794 µM.
With `N/C(=N\S(=O)(=O)c1cccc(Cl)c1)N1CC2(C=N1)CCCC2` [compound 97], the melting point lay in the range of 146 to 147 °C.
Still for that read-out and setting: in the case of `CC1(C)C=NN(/C(N)=N/S(=O)(=O)c2ccc(Cl)s2)C1` [compound 102] it was 162 to 164 °C.
With `CN/C(=N\S(=O)(=O)c1ccc(Cl)s1)N1CC(C)(C)C=N1` [compound 103], the Ki on 5-HT6 receptor [1] (setting [3]) is 0.0794 µM. Besides, the Kb at 5-HT6 receptor [2] (setting [4]) was 0.0501 µM.
`CCC1C=NN(/C(N)=N/S(=O)(=O)c2ccc(Cl)s2)C1` (stereo not drawn) [compound 105] returned a melting point of 115 to 116 °C.
For `CCN/C(=N\S(=O)(=O)c1ccc(Cl)s1)N1CC(C)(C)C(C)=N1` [compound 112], the Ki at 5-HT6 receptor [1] (setting [3]) is 0.2 µM. Moreover, the Kb at 5-HT6 receptor [2] (setting [4]) is 0.0631 µM.
Take `CCN/C(=N\S(=O)(=O)c1cccc(Cl)c1)N1CC(c2ccccc2)C=N1` (stereo not drawn) [compound 139]: the Ki on 5-HT6 receptor [1] (setting [3]) was 0.251 µM. Further, the Kb at 5-HT6 receptor [2] (setting [4]) is 0.316 µM.
For `CCN/C(=N\S(=O)(=O)c1cccc(Cl)c1)N1CC(c2ccccc2)C(C)=N1` (stereo not drawn) [compound 140], at 5-HT6 receptor [1] (setting [3]), the Ki is 0.2 µM.
In the case of `CCN/C(=N\S(=O)(=O)c1cccc(Cl)c1)N1N=CCC1c1ccco1` (stereo not drawn) [compound 144], the Ki at 5-HT6 receptor [1] (setting [3]) was 0.00794 µM. Moreover, on 5-HT6 receptor [2] (setting [5]), the “5-HT6 pA2” value is given as 8.1.
Consider `CCN/C(=N\S(=O)(=O)c1cccc(Cl)c1)N1N=CCC1c1cccnc1` (stereo not drawn) [compound 145], for which, on 5-HT6 receptor [1] (setting [3]), the Ki is 0.0316 µM. Further, the Kb at 5-HT6 receptor [2] (setting [4]) is 0.0126 µM.
The like results for `CCN/C(=N\S(=O)(=O)c1cccc(Cl)c1)N1N=CCC1c1ccoc1` (stereo not drawn) [compound 146] were, in that order, 0.02 µM and 0.0398 µM.
The matching figures for `CCN/C(=N\S(=O)(=O)c1cccc(Cl)c1)N1N=CCC1c1ccccn1` (stereo not drawn) [compound 147]: 0.316 µM and 0.794 µM.
Regarding `CCN/C(=N\S(=O)(=O)c1cccc(Cl)c1)N1N=CCC1c1ccncc1` (stereo not drawn) [compound 148], the Ki on 5-HT6 receptor [1] (setting [3]) is 0.501 µM. In addition, the “5-HT6 pA2” value on 5-HT6 receptor [2] (setting [5]) is 6.9.
Take `CCN/C(=N\S(=O)(=O)c1cccc(Cl)c1)N1N=CCC1c1ccsc1` (stereo not drawn) [compound 149]: the Ki on 5-HT6 receptor [1] (setting [3]) was 0.0126 µM. The Kb at 5-HT6 receptor [2] (setting [4]) is 0.0316 µM.
Turning to `CCN/C(=N\S(=O)(=O)c1cccc(Cl)c1)N1N=CCC1c1cccs1` (stereo not drawn) [compound 150], at 5-HT6 receptor [1] (setting [3]), the Ki is 0.0316 µM. Moreover, the Kb on 5-HT6 receptor [2] (setting [4]) is 0.0316 µM.
Take `CCN/C(=N\S(=O)(=O)c1cccc(Cl)c1)N1N=C(C(C)C)CC1c1ccccc1` (stereo not drawn) [compound 151]: the Ki on 5-HT6 receptor [1] (setting [3]) is 0.2 µM. The Kb at 5-HT6 receptor [2] (setting [4]) was 0.501 µM.
Consider `CCN/C(=N\S(=O)(=O)c1cccc(Cl)c1)N1N=CC(C)C1c1ccccc1` (stereo not drawn) [compound 152], for which the Ki on 5-HT6 receptor [1] (setting [3]) was 0.158 µM.
Turning to `CCN/C(=N\S(=O)(=O)c1cccc(Cl)c1)N1N=CC(CC)C1c1ccccc1` (stereo not drawn) [compound 153], the Ki on 5-HT6 receptor [1] (setting [3]) was 0.158 µM.
`CCN/C(=N\S(=O)(=O)c1cccc(Cl)c1)N1N=CC2CN(C)CCC21` (stereo not drawn) [compound 154]: at 5-HT6 receptor [1] (setting [3]), the Ki was 0.01 µM. For the same compound, the Kb at 5-HT6 receptor [2] (setting [4]) was 0.00398 µM.
The matching figures for `CCN/C(=N\S(=O)(=O)c1cccc(Cl)c1)N1CC2(C=N1)CCN(C)CC2` [compound 157]: 0.00631 µM and 0.00794 µM.
For the compound `CN/C(=N\S(=O)(=O)c1cccc(Cl)c1)N1CC2(C=N1)CCOCC2` [compound 160], the Ki at 5-HT6 receptor [1] (setting [3]) is 0.0794 µM. For the same compound, the Kb at 5-HT6 receptor [2] (setting [4]) is 0.2 µM.
The matching figures for `N/C(=N\S(=O)(=O)c1cccc(Cl)c1)N1CC2(C=N1)CCOCC2` [compound 161]: 0.0794 µM and 0.1 µM.
The like results for `CCN/C(=N\S(=O)(=O)c1c(Cl)nc2sccn12)N1CC2(C=N1)CCOCC2` [compound 162] were, in that order, 0.0631 µM and 0.0126 µM.
Consider `CN/C(=N\S(=O)(=O)c1c(Cl)nc2sccn12)N1CC2(C=N1)CCOCC2` [compound 163], for which, at 5-HT6 receptor [1] (setting [3]), the Ki is 0.251 µM. Further, on 5-HT6 receptor [2] (setting [4]), the Kb was 0.01 µM.
The like results for `N/C(=N\S(=O)(=O)c1c(Cl)nc2sccn12)N1CC2(C=N1)CCOCC2` [compound 164] were, in that order, 0.0501 µM and 0.0398 µM.
Regarding `CCN/C(=N\S(=O)(=O)c1ccc(Cl)s1)N1CC2(C=N1)CCOCC2` [compound 165], the Ki on 5-HT6 receptor [1] (setting [3]) was 0.0251 µM. On 5-HT6 receptor [2] (setting [4]), the Kb was 0.02 µM.
The like results for `CN/C(=N\S(=O)(=O)c1ccc(Cl)s1)N1CC2(C=N1)CCOCC2` [compound 166] were, in that order, 0.1 µM and 0.0794 µM.
The matching figures for `N/C(=N\S(=O)(=O)c1ccc(Cl)s1)N1CC2(C=N1)CCOCC2` [compound 167]: 0.0631 µM and 0.0316 µM.
As to `CCN/C(=N\S(=O)(=O)c1cccc(Cl)c1)N1CC(CCC(F)(F)F)(CCC(F)(F)F)C=N1` [compound 168], the Ki at 5-HT6 receptor [1] (setting [3]) is 0.316 µM.
Turning to `CCN/C(=N\S(=O)(=O)N(C)c1ccccc1)N1CC(CC)C=N1` (stereo not drawn) [compound 172], at 5-HT6 receptor [1] (setting [3]), the Ki is 0.316 µM.
On the same count and under the same terms, in the case of `CCN/C(=N\S(=O)(=O)c1ccc(N(C)C)cc1)N1CC(CC)C=N1` (stereo not drawn) [compound 174] it was 0.1 µM.
Consider `CCN/C(=N\S(=O)(=O)c1ccccc1Cl)N1CCCC1` [reference compound], for which the Kb on 5-HT6 receptor [2] was more than 10 µM.

(Values after patent US8722887B2, “Sulfonylpyrazole and sulfonylpyrazoline carboxamidine derivatives as 5-HT6 antagonists” (Abbvie Bahamas, Ltd., priority 2006, dated 2014).)
